Measured values reported in PubChem BioAssay (NCI).
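Tested at 5 concentrations; 48 h exposure; 96-well plates; endpoints linearly interpolated, else capped at highest concentration. GI50 is the concentration that inhibits growth by half. At the TGI there is no net growth.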

Key:
Assay in all cases: DTP human tumour cell line panel, 48 h
HT29 colon = test system: HT29 colon
HOP-92 NSCLC = test system: HOP-92 NSCLC
PC-3 prostate = test system: PC-3 prostate
SW-620 colon = test system: SW-620 colon
IGROV1 ovarian = test system: IGROV1 ovarian
SNB-19 CNS = test system: SNB-19 CNS
UACC-62 melanoma = test system: UACC-62 melanoma
HS 578T breast = test system: HS 578T breast
SF-295 CNS = test system: SF-295 CNS
HCC-2998 colon = test system: HCC-2998 colon

Structure (SMILES) | GI50 (HT29 colon) | TGI (HT29 colon) | GI50 (HOP-92 NSCLC) | TGI (HOP-92 NSCLC) | GI50 (PC-3 prostate) | TGI (PC-3 prostate) | GI50 (SW-620 colon) | TGI (SW-620 colon) | GI50 (IGROV1 ovarian) | TGI (IGROV1 ovarian) | GI50 (SNB-19 CNS) | TGI (SNB-19 CNS) | GI50 (UACC-62 melanoma) | TGI (UACC-62 melanoma) | GI50 (HS 578T breast) | TGI (HS 578T breast) | GI50 (SF-295 CNS) | TGI (SF-295 CNS) | GI50 (HCC-2998 colon) | TGI (HCC-2998 colon)
c1cncc(-c2nc3ccccc3s2)c1 | > 100 µM | > 100 µM | 18 µM | > 100 µM | > 100 µM | > 100 µM | > 100 µM | > 100 µM | 42.6 µM | > 100 µM | > 100 µM | > 100 µM | > 100 µM | > 100 µM | 50.7 µM | > 100 µM | > 100 µM | > 100 µM | > 100 µM | > 100 µM
N#Cc1ccc(C2C3=C(CCCC3=O)OC3=C2C(=O)c2ccccc2C3=O)cc1 (stereo not given) | 2.91 µM | 8.04 µM | 1.27 µM | 3.59 µM | 2.17 µM | 12.2 µM | 2.21 µM | 5.69 µM | 1.45 µM | 3.46 µM | 4.35 µM | 16 µM | 2.06 µM | 4.02 µM | 3.21 µM | 9.37 µM | 1.83 µM | 3.9 µM | 3 µM | 8.38 µM
COc1ccc(-c2cn(-c3cccc(C(=O)/C=C/c4ccc(O)c(OC)c4)c3)c(=O)[nH]2)cc1 | 2.99 µM | > 22.7 µM | 2.61 µM | 20.5 µM | 2.91 µM | 14.2 µM | 2.42 µM | 6.22 µM | 3.58 µM | 18.2 µM | 4.59 µM | 43.9 µM | 3.18 µM | 16.1 µM | 3.24 µM | > 27.2 µM | 11.2 µM | > 85.4 µM | 2.39 µM | 6.14 µM
CCn1c2ccc(C(=O)CCCN(C)C)cc2c2cc(C(=O)CCCN(C)C)ccc21 |  | 4.24 µM |  | 9.24 µM |  | 5.88 µM |  | 3.76 µM |  | 4.23 µM |  | 9.31 µM |  | 20.8 µM |  | 6.35 µM |  | 14.5 µM |  | 6.05 µM
